Test results as given in ChEMBL document CHEMBL1201862, “PubChem BioAssay data set” (2004).
Activity calls are given as the source filed them.

Experiments:
[1] = NIH3T3 cell viability loss – ATP luminescence, mouse fibroblasts, counter-screen, dose response (AID 2010); format: functional, cell-based;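 also: cells exposed to compound for about 90 hours before reading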
Beta-galactosidase [2] = biological target: T1, Beta-galactosidase (Escherichia coli, UniProt Q8VNN2); test: detection-enzyme interference by beta-gal modulators – biochemical, E. coli enzyme, set 3, artefact control for CCR6 antagonist project, dose response (AID 504712); format: functional
T1 sequence (Q8VNN2 whole entry): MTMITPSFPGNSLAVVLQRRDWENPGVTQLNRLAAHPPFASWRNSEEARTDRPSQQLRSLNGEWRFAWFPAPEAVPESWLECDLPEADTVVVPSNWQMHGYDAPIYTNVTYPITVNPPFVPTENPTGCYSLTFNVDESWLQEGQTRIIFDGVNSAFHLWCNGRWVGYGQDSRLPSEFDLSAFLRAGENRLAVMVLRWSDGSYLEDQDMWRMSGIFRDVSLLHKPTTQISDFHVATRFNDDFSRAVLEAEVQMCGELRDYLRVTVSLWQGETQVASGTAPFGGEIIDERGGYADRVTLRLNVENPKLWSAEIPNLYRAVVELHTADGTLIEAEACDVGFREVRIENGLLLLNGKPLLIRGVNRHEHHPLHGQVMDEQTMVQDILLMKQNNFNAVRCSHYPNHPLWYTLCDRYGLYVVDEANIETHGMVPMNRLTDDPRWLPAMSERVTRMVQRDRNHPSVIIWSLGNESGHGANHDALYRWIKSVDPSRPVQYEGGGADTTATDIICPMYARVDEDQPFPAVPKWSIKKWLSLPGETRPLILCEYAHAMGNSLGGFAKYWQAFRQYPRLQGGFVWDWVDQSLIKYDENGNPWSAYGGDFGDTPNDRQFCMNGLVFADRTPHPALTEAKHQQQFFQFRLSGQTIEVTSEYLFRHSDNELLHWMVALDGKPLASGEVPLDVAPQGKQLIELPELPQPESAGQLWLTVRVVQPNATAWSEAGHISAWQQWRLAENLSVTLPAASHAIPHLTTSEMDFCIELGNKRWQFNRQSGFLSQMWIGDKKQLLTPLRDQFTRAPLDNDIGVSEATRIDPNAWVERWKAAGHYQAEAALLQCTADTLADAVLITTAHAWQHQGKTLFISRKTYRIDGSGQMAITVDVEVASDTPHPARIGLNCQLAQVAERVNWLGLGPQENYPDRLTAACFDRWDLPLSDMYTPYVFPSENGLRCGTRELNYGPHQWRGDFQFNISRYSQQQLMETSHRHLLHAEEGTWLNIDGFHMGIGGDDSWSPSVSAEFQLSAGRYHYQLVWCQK

Mu-type opioid receptor = Mu-type opioid receptor (Homo sapiens, UniProt P35372); test: HTS Image-Based Screen for Agonists of the MOR Receptor. [Related pubchem assays (depositor defined):AID1777, AID1785, AID1786, AID2133]; format: functional;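 also: imaging of beta-arrestin GFP recruitment into spots after receptor activation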
Sequence of Mu-type opioid receptor (P35372 whole entry): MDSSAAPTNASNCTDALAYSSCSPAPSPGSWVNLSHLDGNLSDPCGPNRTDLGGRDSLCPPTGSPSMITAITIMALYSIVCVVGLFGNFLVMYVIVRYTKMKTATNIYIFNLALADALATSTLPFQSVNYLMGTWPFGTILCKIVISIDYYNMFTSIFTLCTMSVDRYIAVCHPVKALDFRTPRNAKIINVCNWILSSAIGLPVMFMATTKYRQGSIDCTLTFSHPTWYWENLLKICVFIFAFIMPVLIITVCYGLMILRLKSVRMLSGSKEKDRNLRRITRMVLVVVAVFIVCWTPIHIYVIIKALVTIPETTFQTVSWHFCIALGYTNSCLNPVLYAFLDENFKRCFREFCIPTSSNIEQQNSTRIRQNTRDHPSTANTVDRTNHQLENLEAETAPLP

[3] = biological target: T2, Delta-type opioid receptor (Homo sapiens, UniProt P41143); test: HTS Image-Based Screen for Antagonists of the DOR Receptor. [Related pubchem assays (depositor defined):AID1777, AID1785, AID1786, AID2133]; format: functional
T2 sequence (P41143 whole entry): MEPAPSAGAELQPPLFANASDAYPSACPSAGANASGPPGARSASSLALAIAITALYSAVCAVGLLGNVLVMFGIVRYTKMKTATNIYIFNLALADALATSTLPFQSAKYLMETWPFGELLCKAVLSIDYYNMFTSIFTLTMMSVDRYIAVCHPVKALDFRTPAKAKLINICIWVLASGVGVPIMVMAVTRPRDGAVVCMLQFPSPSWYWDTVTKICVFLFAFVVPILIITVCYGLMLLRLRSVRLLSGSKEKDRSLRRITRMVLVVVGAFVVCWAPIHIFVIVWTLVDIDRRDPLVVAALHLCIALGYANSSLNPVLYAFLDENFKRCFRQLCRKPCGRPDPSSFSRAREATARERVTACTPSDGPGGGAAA

[4] = biological target: T3, C-C chemokine receptor type 6 (Homo sapiens, UniProt P51684); test: antagonism of CCR6 beta-arrestin recruitment – cell-based, luminescent beta-arrestin readout, dose response (AID 504728); format: functional
T3 sequence (P51684 whole entry): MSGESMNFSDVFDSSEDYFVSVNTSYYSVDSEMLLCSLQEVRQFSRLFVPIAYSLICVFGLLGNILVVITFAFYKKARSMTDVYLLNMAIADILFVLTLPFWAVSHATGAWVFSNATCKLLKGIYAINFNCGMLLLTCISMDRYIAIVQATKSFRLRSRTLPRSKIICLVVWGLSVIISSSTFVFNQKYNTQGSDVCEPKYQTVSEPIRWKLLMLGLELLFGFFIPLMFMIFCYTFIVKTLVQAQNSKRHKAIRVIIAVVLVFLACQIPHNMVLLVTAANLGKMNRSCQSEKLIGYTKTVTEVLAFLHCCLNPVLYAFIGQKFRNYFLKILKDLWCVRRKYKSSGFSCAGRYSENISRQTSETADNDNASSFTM

Cytochrome P450 2C9 = Cytochrome P450 2C9 (Homo sapiens, UniProt P11712)
Sequence of Cytochrome P450 2C9 (P11712 whole entry): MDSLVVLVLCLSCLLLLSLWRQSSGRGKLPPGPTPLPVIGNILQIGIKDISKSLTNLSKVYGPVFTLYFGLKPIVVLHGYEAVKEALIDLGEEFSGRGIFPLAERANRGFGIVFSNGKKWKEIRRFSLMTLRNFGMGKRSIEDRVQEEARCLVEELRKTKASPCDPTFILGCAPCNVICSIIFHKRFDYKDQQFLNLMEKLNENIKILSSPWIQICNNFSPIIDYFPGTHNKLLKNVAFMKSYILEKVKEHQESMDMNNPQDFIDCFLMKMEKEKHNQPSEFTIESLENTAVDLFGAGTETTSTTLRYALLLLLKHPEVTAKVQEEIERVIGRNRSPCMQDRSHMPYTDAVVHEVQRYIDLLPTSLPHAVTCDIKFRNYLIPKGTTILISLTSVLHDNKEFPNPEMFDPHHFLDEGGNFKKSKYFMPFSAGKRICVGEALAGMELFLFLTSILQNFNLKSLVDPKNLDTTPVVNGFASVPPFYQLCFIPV

[5] = biological target: T4, Kappa-type opioid receptor (Homo sapiens, UniProt P41145); format: functional
T4 sequence (P41145 whole entry): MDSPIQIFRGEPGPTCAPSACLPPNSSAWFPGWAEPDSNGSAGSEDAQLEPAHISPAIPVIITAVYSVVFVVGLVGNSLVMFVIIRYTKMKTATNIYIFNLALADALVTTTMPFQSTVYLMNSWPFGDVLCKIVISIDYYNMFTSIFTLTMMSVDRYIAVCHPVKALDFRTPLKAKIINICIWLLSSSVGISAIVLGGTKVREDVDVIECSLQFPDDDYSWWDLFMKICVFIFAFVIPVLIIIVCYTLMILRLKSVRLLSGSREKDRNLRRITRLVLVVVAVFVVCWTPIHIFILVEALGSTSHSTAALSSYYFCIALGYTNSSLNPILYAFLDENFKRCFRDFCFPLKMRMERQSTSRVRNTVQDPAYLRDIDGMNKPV

[6] = biological target: T4, Kappa-type opioid receptor; format: functional; remark: listed apart in the source
[7] = biological target: T2, Delta-type opioid receptor; test: HTS Image-Based Screen for Agonists of the DOR Receptor. [Related pubchem assays (depositor defined):AID1777, AID1786, AID2133]; format: functional
Cytochrome P450 2C19 = Cytochrome P450 2C19 (Homo sapiens, UniProt P33261); test: Cytochrome panel assay with activity outcomes. Panel member name: p450-cyp2c19 Compounds with AC50 equal or less than 10 uM are considered active; format: functional; conditions: read-out: AC50
Sequence of Cytochrome P450 2C19 (P33261 whole entry): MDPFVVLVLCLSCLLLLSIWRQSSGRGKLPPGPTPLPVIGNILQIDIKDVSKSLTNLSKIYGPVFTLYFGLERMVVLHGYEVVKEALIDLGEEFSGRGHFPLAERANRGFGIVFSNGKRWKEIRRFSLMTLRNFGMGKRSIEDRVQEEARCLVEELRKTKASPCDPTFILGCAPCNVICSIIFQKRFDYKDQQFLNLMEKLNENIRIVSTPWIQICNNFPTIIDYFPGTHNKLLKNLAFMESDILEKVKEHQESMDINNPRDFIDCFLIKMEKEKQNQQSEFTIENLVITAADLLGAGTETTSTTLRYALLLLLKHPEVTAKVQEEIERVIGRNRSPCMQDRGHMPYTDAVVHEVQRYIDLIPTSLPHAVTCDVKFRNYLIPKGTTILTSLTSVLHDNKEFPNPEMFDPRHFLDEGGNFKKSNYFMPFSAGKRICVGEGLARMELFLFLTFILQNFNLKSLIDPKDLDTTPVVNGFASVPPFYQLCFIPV

[8] = Trypanosoma cruzi growth suppression in host cells – NIH3T3 host cells, beta-gal luminescence, confirmation (AID 2044); format: functional, cell-based;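 also: intracellular parasites grown in NIH/3T3 mouse fibroblasts as host cells; luminescent beta-galactosidase reporter signal from transgenic T. cruzi replicating inside host cells; inhibitors lower the luminescence signal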
Beta-galactosidase [9] = biological target: T1, Beta-galactosidase; format: functional
Bcl-2-related protein A1 = biological target: T5, Bcl-2-related protein A1 (Mus musculus, UniProt Q07440); format: functional;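 also: confirmatory dose–response counterscreen on Bfl-1, used to check hits from a UBC13 polyubiquitin inhibitor campaign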
T5 sequence (Q07440 whole entry): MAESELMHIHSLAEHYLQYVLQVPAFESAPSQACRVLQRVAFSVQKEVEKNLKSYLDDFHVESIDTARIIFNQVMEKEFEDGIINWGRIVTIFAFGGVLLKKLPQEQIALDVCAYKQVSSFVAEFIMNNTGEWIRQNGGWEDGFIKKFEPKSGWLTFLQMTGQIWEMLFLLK

[10] = biological target: T6, Ubiquitin-conjugating enzyme E2 N (Homo sapiens, UniProt P61088); format: functional
T6 sequence (P61088 whole entry): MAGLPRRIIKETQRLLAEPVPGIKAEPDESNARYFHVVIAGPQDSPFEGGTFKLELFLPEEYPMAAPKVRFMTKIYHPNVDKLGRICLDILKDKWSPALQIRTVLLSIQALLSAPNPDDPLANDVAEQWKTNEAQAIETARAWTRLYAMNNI

Streptokinase A = biological target: T7, Streptokinase A (Streptococcus pyogenes serotype M1, UniProt P10520); test: viability-normalized secreted streptokinase activity reduction – plasminogen activation absorbance, OD405, dose response (AID 1914); format: functional, Streptococcus pyogenes M1 GAS;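 also: secreted streptokinase activity via plasminogen activation per viability signal from cell pellet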
T7 sequence (P10520 whole entry): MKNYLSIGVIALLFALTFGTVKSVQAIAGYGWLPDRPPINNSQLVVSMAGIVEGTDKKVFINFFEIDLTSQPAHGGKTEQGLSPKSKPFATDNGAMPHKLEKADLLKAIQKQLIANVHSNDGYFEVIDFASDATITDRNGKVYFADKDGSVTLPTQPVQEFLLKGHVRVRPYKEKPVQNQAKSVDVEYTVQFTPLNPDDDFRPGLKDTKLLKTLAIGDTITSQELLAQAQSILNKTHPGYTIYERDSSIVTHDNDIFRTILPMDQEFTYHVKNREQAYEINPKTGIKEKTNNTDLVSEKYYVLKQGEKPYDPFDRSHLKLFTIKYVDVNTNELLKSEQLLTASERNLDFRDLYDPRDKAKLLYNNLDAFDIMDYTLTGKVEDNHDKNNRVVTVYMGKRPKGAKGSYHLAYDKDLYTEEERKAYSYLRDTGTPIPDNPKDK

Streptococcus = test: GAS UMAA2166 growth inhibition – luminescence, BacTiterGlo, counter-screen for streptokinase expression inhibitor project, dose response (AID 1915); format: functional, organism-based;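 also: potency for reduction of bacterial viability or growth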
Melanocortin receptor 4 = Melanocortin receptor 4 (Homo sapiens, UniProt P32245); format: functional, cell-based;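 also: Cell-based assay with luminescence read-out, confirmatory dose-response testing for agonist activity of biased ligands at MC4R; human U2OS cells with tagged receptor and beta-arrestin; potency of agonists that increase receptor coupling to beta-arrestin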
Sequence of Melanocortin receptor 4 (P32245 whole entry): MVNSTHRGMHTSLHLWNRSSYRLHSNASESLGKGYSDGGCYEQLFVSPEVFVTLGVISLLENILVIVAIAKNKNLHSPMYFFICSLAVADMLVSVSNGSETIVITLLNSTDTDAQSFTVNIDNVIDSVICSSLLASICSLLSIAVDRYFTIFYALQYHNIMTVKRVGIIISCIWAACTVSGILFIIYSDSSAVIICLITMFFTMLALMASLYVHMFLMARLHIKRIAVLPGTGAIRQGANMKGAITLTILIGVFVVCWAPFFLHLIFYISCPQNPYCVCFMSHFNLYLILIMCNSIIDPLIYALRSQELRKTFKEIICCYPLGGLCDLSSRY

[11] = biological target: T6, Ubiquitin-conjugating enzyme E2 N; format: functional; remark: listed apart in the source
[12] = tested on: Streptococcus sp. 'group A'; test: Streptococcus pyogenes SK(-)GAS viability under kanamycin – luminescence, BacTiterGlo, confirmation, counter-screen for streptokinase expression inhibitor project, dose response (AID 1900); format: functional, organism-based
[13] = biological target: Neurotensin receptor type 1 (Homo sapiens, UniProt P30989); format: functional;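 also: Image-based confirmatory dose-response assay measuring agonist activity at NTR1; NTR1-expressing U2OS osteosarcoma cells imaged for beta-arrestin GFP spot formation; agonist potency where compounds increase beta-arrestin recruitment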
Sequence of Neurotensin receptor type 1 (P30989 whole entry): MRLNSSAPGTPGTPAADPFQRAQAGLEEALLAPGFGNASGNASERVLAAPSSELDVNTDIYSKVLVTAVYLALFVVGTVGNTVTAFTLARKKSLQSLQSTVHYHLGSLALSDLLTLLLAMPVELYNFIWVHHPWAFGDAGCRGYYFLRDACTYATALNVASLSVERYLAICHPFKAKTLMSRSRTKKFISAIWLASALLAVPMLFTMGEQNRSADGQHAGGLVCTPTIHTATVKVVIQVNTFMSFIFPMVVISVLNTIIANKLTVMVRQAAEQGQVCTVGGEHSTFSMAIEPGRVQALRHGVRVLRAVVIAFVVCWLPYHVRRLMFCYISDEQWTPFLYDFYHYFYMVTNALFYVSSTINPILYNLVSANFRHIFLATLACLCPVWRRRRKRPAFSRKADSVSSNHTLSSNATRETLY

[14] = biological target: T8, Short transient receptor potential channel 4 (Mus musculus, UniProt Q9QUQ5); test: calcium entry via TRPC4 opening agents – cell-based, HEK293 TRPC4/mu-opioid, Fluo-4 calcium, dose response (AID 434937); format: functional
T8 sequence (Q9QUQ5 whole entry): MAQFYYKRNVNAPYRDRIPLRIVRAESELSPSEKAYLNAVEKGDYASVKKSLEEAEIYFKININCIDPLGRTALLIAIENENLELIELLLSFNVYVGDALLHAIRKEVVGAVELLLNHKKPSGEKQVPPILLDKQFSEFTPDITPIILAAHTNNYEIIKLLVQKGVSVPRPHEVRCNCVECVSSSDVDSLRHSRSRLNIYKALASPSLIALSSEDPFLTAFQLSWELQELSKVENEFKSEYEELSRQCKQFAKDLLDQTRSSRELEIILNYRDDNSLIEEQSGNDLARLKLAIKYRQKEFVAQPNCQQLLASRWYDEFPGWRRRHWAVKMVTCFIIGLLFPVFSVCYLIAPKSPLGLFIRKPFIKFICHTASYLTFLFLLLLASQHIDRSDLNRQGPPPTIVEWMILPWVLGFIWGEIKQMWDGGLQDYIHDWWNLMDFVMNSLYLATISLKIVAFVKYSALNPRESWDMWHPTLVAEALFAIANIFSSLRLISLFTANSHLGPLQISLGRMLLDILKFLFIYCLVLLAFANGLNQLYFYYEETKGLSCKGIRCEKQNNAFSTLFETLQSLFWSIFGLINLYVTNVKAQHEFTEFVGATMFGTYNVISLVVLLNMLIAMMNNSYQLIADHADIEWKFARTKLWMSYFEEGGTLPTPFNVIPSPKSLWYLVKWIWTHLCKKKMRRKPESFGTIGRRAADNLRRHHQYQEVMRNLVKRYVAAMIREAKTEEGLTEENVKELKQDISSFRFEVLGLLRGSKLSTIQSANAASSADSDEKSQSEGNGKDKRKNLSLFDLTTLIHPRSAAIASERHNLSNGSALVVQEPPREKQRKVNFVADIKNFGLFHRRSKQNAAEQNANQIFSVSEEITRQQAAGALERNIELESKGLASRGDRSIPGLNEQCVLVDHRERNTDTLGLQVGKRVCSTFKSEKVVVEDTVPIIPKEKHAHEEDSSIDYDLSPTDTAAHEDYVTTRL

Cytochrome P450 2D6 = Cytochrome P450 2D6 (Homo sapiens, UniProt P10635);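 also: CYP2D6 member of a cytochrome P450 panel assay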
Sequence of Cytochrome P450 2D6 (P10635 whole entry): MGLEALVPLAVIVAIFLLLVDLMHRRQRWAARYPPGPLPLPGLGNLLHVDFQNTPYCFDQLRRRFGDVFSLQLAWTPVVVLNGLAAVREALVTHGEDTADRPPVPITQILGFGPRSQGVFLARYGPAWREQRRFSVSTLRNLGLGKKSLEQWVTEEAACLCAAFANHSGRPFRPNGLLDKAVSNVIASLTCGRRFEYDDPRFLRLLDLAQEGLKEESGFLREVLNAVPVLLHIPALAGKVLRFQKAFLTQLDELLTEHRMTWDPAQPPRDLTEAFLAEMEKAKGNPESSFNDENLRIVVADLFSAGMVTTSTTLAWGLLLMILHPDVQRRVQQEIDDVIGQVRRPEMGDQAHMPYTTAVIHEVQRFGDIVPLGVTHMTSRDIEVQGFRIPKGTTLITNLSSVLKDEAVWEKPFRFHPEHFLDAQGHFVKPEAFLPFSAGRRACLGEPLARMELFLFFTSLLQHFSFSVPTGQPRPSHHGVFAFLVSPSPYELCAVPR

[15] = biological target: T9, Tyrosine-protein phosphatase non-receptor type 7 (Homo sapiens, UniProt P35236); format: functional
T9 sequence (P35236 whole entry): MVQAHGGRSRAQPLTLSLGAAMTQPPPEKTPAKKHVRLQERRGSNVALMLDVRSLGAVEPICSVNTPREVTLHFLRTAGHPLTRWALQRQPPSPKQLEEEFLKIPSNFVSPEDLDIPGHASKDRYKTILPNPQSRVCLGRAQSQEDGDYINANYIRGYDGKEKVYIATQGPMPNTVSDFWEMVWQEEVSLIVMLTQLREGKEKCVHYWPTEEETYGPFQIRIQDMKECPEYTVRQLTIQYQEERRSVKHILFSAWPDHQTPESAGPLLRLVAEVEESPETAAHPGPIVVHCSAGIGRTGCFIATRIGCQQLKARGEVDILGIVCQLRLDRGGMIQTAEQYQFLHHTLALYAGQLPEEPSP

[16] = biological target: T10, Tyrosine-protein phosphatase non-receptor type 22 (Homo sapiens, UniProt Q9Y2R2); format: functional
T10 sequence (Q9Y2R2 whole entry): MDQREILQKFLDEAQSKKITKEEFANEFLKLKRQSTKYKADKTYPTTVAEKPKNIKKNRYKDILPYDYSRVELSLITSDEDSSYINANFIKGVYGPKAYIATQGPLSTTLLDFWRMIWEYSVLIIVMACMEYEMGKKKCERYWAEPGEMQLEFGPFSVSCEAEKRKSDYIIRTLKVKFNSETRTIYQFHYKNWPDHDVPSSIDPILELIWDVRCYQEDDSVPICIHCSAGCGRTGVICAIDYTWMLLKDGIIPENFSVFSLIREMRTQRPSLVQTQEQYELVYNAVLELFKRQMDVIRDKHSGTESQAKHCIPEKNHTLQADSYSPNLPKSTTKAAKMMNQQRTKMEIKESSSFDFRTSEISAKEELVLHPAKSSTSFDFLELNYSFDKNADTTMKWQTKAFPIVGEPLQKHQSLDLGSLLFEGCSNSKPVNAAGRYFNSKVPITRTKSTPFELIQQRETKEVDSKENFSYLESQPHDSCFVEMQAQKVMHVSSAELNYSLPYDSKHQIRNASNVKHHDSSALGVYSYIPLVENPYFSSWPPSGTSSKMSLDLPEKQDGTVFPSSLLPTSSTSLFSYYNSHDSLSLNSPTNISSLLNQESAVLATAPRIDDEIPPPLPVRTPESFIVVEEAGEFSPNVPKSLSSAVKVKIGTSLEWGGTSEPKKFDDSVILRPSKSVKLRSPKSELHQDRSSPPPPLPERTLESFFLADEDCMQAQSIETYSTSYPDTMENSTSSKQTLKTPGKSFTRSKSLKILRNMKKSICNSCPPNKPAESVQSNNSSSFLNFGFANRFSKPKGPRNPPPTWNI

[17] = biological target: T10, Tyrosine-protein phosphatase non-receptor type 22; format: functional; remark: listed apart in the source
[18] = biological target: T11, E3 ubiquitin-protein ligase XIAP (Homo sapiens, UniProt P98170); test: small molecules displacing peptide from XIAP – biochemical, IAP family, fluorescence polarization (AID 1018); format: functional
T11 sequence (P98170 whole entry): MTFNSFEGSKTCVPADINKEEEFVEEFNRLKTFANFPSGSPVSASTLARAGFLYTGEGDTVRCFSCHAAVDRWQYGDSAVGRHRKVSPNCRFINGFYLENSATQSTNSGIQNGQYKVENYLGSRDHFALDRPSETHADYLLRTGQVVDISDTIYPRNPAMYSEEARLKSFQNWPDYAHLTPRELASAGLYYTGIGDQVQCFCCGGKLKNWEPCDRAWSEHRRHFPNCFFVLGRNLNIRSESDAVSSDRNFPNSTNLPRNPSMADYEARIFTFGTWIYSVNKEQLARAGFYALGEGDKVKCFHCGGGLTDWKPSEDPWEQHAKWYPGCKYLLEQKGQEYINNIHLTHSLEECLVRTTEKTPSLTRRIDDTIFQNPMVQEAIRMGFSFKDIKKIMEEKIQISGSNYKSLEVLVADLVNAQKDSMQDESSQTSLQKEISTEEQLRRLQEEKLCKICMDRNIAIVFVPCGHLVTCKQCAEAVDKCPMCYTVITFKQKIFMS

[19] = biological target: T11, E3 ubiquitin-protein ligase XIAP; test: Counter Screen using XIAP-Bir3 for Chemical Antagonists of Bir1/2 domains of IAP-family anti-apoptotic proteins. [Related pubchem assays (depositor defined):AID1018, AID1449, AID1514, AID1638, AID1749, AID1750, AID488957, AID488963]

O=C(Nc1nccs1)c1sc2cc(Cl)ccc2c1Cl
EC50 [1]: 17.9 µM (active) | IC50 (Beta-galactosidase [2]): > 66.6 µM (inactive) | EC50 (Mu-type opioid receptor): > 32 µM (inactive) | IC50 [3]: > 32 µM (inactive) | IC50 [4]: > 66.6 µM (inactive) | AC50 (Cytochrome P450 2C9): 0.891 µM (inconclusive) | IC50 [5]: 9.5 µM (active) | IC50 [6]: > 32 µM | EC50 [7]: > 32 µM (inactive) | AC50 (Cytochrome P450 2C19): 0.631 µM (inconclusive) | EC50 [8]: 2.31 µM (active) | EC50 (Beta-galactosidase [9]): > 31.5 µM (inactive)

O=C1c2cccc3cccc(c23)C(=O)N1CC1CCN(CC(O)COc2ccc3ccccc3c2)CC1 (stereo not given)
IC50 (Bcl-2-related protein A1): > 20 µM (inactive) | IC50 [10]: 7.69 µM (active) | EC50 [1]: > 60 µM (not active) | EC50 (Streptokinase A): 17.9 µM (inconclusive) | EC50 (Streptococcus): 18.6 µM (active) | EC50 (Melanocortin receptor 4): 6.31 µM (active) | IC50 [11]: 15 µM (active) | EC50 [12]: 6.34 µM (active) | EC50 [8]: 1.65 µM (active) | EC50 [13]: 18.5 µM (active)

O=C(c1sc2ccccc2c1Cl)N(Cc1ccccc1)C1CCS(=O)(=O)C1 (stereo not given)
EC50 [14]: 3.35 µM (active) | AC50 (Cytochrome P450 2D6): 14.1 µM (inconclusive)

O=C(CCN1C(=O)C2CC=C(Cl)CC2C1=O)NCc1ccco1 (stereo not given)
IC50 [15]: > 79.4 µM (inactive) | IC50 [16]: > 79.4 µM (inactive) | IC50 [17]: > 79.4 µM (inactive)

CCOc1ccccc1NC(=O)CN1CCC(C(=O)c2ccc(F)cc2)CC1
IC50 (Bcl-2-related protein A1): > 20 µM (inactive) | IC50 [10]: > 20 µM (inactive) | IC50 [11]: 13.8 µM (active)

CCOC(=O)c1ccc(NC(=O)NCCc2c[nH]cn2)cc1
EC50 [14]: 0.133 µM (active)

CC/N=C1\Cn2c(nc3scc(-c4ccccc4)c3c2=O)CN1CC
IC50 [18]: > 100 µM (not active) | IC50 [19]: > 100 µM (inactive)

COc1ccc(OC)c(/C=N/NC(=O)c2ccc(Cn3cc([N+](=O)[O-])cn3)o2)c1
IC50 [18]: > 100 µM (not active) | IC50 [19]: > 100 µM (inactive)
